The source made the active and inactive calls. No cut-off for these calls is given here.
Columns and labels:
Mus musculus [1] = assay: Anti-inflammatory activity in C57BL/6 mouse model of LPS-induced ALI assessed as reduction in IL-6 level in BALF at 2 to 6 mg/kg qd treated for 7 days by ELISA; assay type: functional, organism-based; conditions: dose 2-6 mg/kg, time 7.0 day
[2] = Stability in simulated intestinal fluid assessed as half life; assay type: physicochemical
Mus musculus [3] = assay: Anti-inflammatory activity in C57BL/6 mouse model of LPS-induced ALI assessed as reduction in MPO level in lung tissue at 2 to 6 mg/kg qd treated for 7 days; assay type: functional, organism-based; conditions: dose 2-6 mg/kg, time 7.0 day
[4] = Stability in simulated gastric fluid assessed as half life; assay type: physicochemical
[5] = Toxicity in C57BL/6 mouse model of LPS-induced ALI assessed as average body weight change at 2 to 6 mg/kg qd treated for 7 days; assay type: organism-based; conditions: in vivo, 168 h, dose 2-6 mg/kg, time 7 day
P2Y purinoceptor 14 [6] = molecular target: T1, P2Y purinoceptor 14 (Homo sapiens, UniProt Q15391); assay: Binding affinity to CM5 chip-immobilized P2Y14 receptor (unknown origin) assessed as equilibrium dissociation constant by SPR analysis
T1 sequence (Q15391 whole entry): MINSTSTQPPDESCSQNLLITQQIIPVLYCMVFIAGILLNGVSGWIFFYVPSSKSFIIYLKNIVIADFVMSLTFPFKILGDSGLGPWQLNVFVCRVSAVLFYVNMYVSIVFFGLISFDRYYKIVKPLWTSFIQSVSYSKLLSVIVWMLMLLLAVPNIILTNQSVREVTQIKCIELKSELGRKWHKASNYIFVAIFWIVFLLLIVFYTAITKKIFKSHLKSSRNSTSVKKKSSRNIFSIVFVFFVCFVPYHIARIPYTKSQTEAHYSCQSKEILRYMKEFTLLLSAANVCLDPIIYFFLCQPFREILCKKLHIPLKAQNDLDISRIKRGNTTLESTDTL

Mus musculus [7] = assay: Anti-inflammatory activity in C57BL/6 mouse model of LPS-induced ALI assessed as reduction in IL-1beta level in BALF at 2 to 6 mg/kg qd treated for 7 days by ELISA; assay type: functional, organism-based; conditions: dose 2-6 mg/kg, time 7.0 day
[8] = Microsomal stability in human liver microsomes assessed as half life; assay type: ADME, Microsome
Mus musculus [9] = assay: Anti-inflammatory activity in C57BL/6 mouse model of LPS-induced ALI assessed as reduction in TNF-alpha level in BALF at 2 to 6 mg/kg qd treated for 7 days by ELISA; assay type: functional, organism-based; conditions: dose 2-6 mg/kg, time 7.0 day
[10] = Microsomal stability in human liver microsomes assessed as intrinsic clearance; assay type: ADME, Microsome; conditions: read-out: CLH
P2Y purinoceptor 14 [11] = molecular target: T1, P2Y purinoceptor 14; assay: Antagonist activity at P2Y14 receptor (unknown origin) stably expressed in HEK293 cells assessed as inhibition of forskolin-induced intracellular cAMP production incubated for 30 mins in presence of UDPG by Camp-Glo kit assay; assay type: functional, cell-based
Mus musculus [12] = assay: Anti-inflammatory activity in C57BL/6 mouse model of LPS-induced ALI assessed as reduction in lung tissue damage at 2 to 6 mg/kg qd treated for 7 days by H and E staining based analysis; assay type: functional, organism-based; conditions: dose 2-6 mg/kg, time 7.0 day

half-life [2]: > 300 min
half-life [4]: > 3000 min
Kd (P2Y purinoceptor 14 [6]): 7.26 µM
half-life [8]: 354 min
microsomal CLint [10]: 25.6 µL/min/mg
IC50 (P2Y purinoceptor 14 [11]): 23.6 nM
SMILES: CNC(=O)C1CN(C(=O)c2onc3ccccc23)CC12CCN(C(=O)c1noc3ccccc13)CC2 (configuration not stated)
Activity (Mus musculus [1]): Active
Activity (Mus musculus [3]): Active
Activity [5]: Non-toxic
Activity (Mus musculus [7]): Active
Activity (Mus musculus [9]): Active
Activity (Mus musculus [12]): Active

From ChEMBL document CHEMBL6134822, “Discovery of a potent and in vivo anti-inflammatory Efficacious, P2Y14R antagonist with a novel benzisoxazoles scaffold by DNA-encoded chemical library technology” (Eur J Med Chem, 2025)
